Blank lines part the entries; values can stand above or below the compound they belong to.
Experiments:
[1] = tested on: SMMC-7721; experiment: Antiproliferative activity against human SMMC7721 cells after 48 hrs by MTT assay; type: functional, cell-based; conditions: SMMC-7721, 48 h
[2] = molecular target: NAD-dependent protein deacylase sirtuin-5, mitochondrial (Homo sapiens) (UniProt Q9NXA8); experiment: Inhibition of SIRT5 (unknown origin) at 100 uM relative to control
[3] = molecular target: NAD-dependent protein deacylase sirtuin-5, mitochondrial (Homo sapiens) (UniProt Q9NXA8); experiment: Inhibition of SIRT5 (unknown origin) at 30 uM relative to control
[4] = tested on: CCRF S-180; experiment: Antitumor activity against mouse S180 cells implanted in mouse assessed as tumor growth inhibition at 7.5 mg/kg, ip qd treated for 7 consecutive days starting from 24 hrs post tumor inoculum relative to control; type: functional; conditions: CCRF S-180, ip, read-out: TGI
[5] = tested on: HGC-27; experiment: Cytotoxicity against human HGC27 cells assessed as reduction in cell viability after 48 hrs by MTT assay; type: functional, cell-based; conditions: HGC-27, 48 h
[6] = tested on: Lewis lung carcinoma cell line; experiment: Antitumor activity against mouse LLC cells implanted in mouse assessed as tumor growth inhibition at 7.5 mg/kg, ip qd treated for 7 consecutive days starting from 24 hrs post tumor inoculum relative to control; type: functional; conditions: read-out: TGI
[7] = tested on: HepG2; experiment: Antiproliferative activity against human HepG2 cells at 4 uM after 48 hrs by MTT assay relative to control; type: functional
[8] = tested on: HepG2; experiment: Antiproliferative activity against human HepG2 cells at 5 uM after 48 hrs by MTT assay relative to control; type: functional

NAD-dependent protein deacylase sirtuin-5, mitochondrial (Homo sapiens), sequence (Q9NXA8 37-310 limits assumed): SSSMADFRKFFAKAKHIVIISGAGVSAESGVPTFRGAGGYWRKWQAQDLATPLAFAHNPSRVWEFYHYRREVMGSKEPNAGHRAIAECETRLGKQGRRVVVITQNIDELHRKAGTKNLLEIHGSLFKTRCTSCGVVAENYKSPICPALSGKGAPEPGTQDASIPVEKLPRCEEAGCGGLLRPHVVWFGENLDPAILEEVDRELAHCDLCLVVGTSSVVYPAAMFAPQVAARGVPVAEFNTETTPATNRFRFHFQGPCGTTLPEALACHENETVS

- IC50 [1]: 6.97 µM
Compound: Cc1nc(C(=O)NCCCCCNC(=O)c2ccccc2O)cc2c1[nH]c1ccccc12

- inhibition [2]: 52%
- inhibition [3]: 35%
Compound: O=C(NCCn1c2ccccc2c2ccncc21)Nc1ccc(C(=O)O)cc1

Compound: COc1cc(-c2nc(Cn3cc(CN4C(=O)c5ccc(C)cc5C4=O)nn3)cc3c2[nH]c2ccccc23)cc(OC)c1OC
- inhibition in vivo at 7.5 mg/kg [4]: 40%
- IC50 [5]: 5.44 µM
- inhibition in vivo at 7.5 mg/kg [6]: 46.9%

Compound: CCCN(Cc1ccc(C(=O)NO)cc1)C(=O)c1cc2c([nH]c3ccccc32)c(-c2ccc(OC)cc2)n1
- Activity [7]: 61.8%
- Activity [8]: 34.5%
